Converted amounts (≈) assume the structure as drawn.
Assays:
HIV-1 (IIIB) = experiment: microbe, parasite or virus in culture; format: cell-based; settings: Human immunodeficiency virus 1, IIIB, MT4, 120 h, read-out: MT4 EC50 (nM)
physchem = settings: 23 °C, fassif, thermodynamic from solid
in vitro = settings: human

| Compound | EC50 (HIV-1 (IIIB)) [nM] | solubility thermodynamic (physchem) [µg/mL] | CC50 (in vitro) [nM] |
| --- | --- | --- | --- |
| CC1=NO[C@@]2(CC[C@H](C)N3C[C@H]2n2cc(C(=O)NCc4ccc(F)cc4F)c(=O)c(OC(=O)N(C)c4ncccc4CN(CC(=O)OCc4ccccc4)C(=O)OCOP(=O)(O)O)c2C3=O)C1 [Compound 33, benzyl N-((2-(((((3′S,5S,7′R)-10′-((2,4-difluorobenzyl)carbamoyl)-3,3′-dimethyl-1′,11′-dioxo-1′,4′,5′,11′-tetrahydro-3′H,4H,7′H-spiro[isoxazole-5,6′-[2,7]methanopyrido[1,2-a][1,4]diazonin]-12′-yl)oxy)carbonyl)(methyl)amino)pyridin-3-yl)methyl)-N-(((phosphonooxy)methoxy)carbonyl)glycinate] | 2.34 | 4170 (≈ 4.38 mM) | 12900 |
| COC(=O)CN(Cc1cccnc1N(C)C(=O)Oc1c2n(cc(C(=O)NCc3ccc(F)cc3F)c1=O)[C@@H]1CN(C2=O)[C@@H](C)CC[C@]12CC(C)=NO2)C(=O)OCOP(=O)(O)O [Compound 34, methyl N-((2-(((((3′S,5S,7′R)-10′-((2,4-difluorobenzyl)carbamoyl)-3,3′-dimethyl-1′,11′-dioxo-1′,4′,5′,11′-tetrahydro-3′H,4H,7′H-spiro[isoxazole-5,6′-[2,7]methanopyrido[1,2-a][1,4]diazonin]-12′-yl)oxy)carbonyl)(methyl)amino)pyridin-3-yl)methyl)-N-(((phosphonooxy)methoxy)carbonyl)glycinate] | 1.4 | 4920 (≈ 5.62 mM) | 12800 |
| CC1=NO[C@@]2(CC[C@H](C)N3C[C@H]2n2cc(C(=O)NCc4ccc(F)cc4F)c(=O)c(OC(=O)N(C)c4ncccc4CN(CCO)C(=O)OCOP(=O)(O)O)c2C3=O)C1 [Compound 35, (phosphonooxy)methyl ((2-(((((3′S,5S,7′R)-10′-((2,4-difluorobenzyl)carbamoyl)-3,3′-dimethyl-1′,11′-dioxo-1′,4′,5′,11′-tetrahydro-3′H,4H,7′H-spiro[isoxazole-5,6′-[2,7]methanopyrido[1,2-a][1,4]diazonin]-12′-yl)oxy)carbonyl)(methyl)amino)pyridin-3-yl)methyl)(2-hydroxyethyl)carbamate] | 2.04 | 4460 (≈ 5.26 mM) | 11600 |
| CC1=NO[C@@]2(CC[C@H](C)N3C[C@H]2n2cc(C(=O)NCc4ccc(F)cc4F)c(=O)c(OCOC(=O)N(C)Cc4ccccc4OP(=O)(O)O)c2C3=O)C1 [Compound 37, (((3′S,5S,7′R)-10′-((2,4-difluorobenzyl)carbamoyl)-3,3′-dimethyl-1′,11′-dioxo-1′,4′,5′,11′-tetrahydro-3′H,4H,7′H-spiro[isoxazole-5,6′-[2,7]methanopyrido[1,2-a][1,4]diazonin]-12′-yl)oxy)methyl methyl(2-(phosphonooxy)benzyl)carbamate] | 13.3 | 4500 (≈ 5.92 mM) | 33500 |
| CC1=NO[C@@]2(CC[C@H](C)N3C[C@H]2n2cc(C(=O)NCc4ccc(F)cc4F)c(=O)c(OCOC(=O)N(C)Cc4ccc(OP(=O)(O)O)cc4)c2C3=O)C1 [Compound 39, (((3′S,5S,7′R)-10′-((2,4-difluorobenzyl)carbamoyl)-3,3′-dimethyl-1′,11′-dioxo-1′,4′,5′,11′-tetrahydro-3′H,4H,7′H-spiro[isoxazole-5,6′-[2,7]methanopyrido[1,2-a][1,4]diazonin]-12′-yl)oxy)methyl methyl(4-(phosphonooxy)benzyl)carbamate] | 88.7 | 4830 (≈ 6.36 mM) | ≥ 50000 |
| CC1=NO[C@@]2(CC[C@H](C)N3C[C@H]2n2cc(C(=O)NCc4ccc(F)cc4F)c(=O)c(OCc4ccc(OP(=O)(O)O)cc4)c2C3=O)C1 [Compound 41, 4-((((3′S,5S,7′R)-10′-((2,4-difluorobenzyl)carbamoyl)-3,3′-dimethyl-1′,11′-dioxo-1′,4′,5′,11′-tetrahydro-3′H,4H,7′H-spiro[isoxazole-5,6′-[2,7]methanopyrido[1,2-a][1,4]diazonin]-12′-yl)oxy)methyl)phenyl dihydrogen phosphate] | 0.727 | 5080 | 12000 |
